The NIST ThermoML archive (doi:10.1016/j.jct.2009.11.014)

Conditions: Liquid; for mass density: vibrating tube; for viscosity: Stony Brook Scientific falling needle HPHTV-100 viscometer

CCCCn1cc[n+](C)c1.F[B-](F)(F)F [1-butyl-3-methylimidazolium tetrafluoroborate]
Conditions | mass density [kg/m3] | viscosity [mPa·s]
283.15 K, 100 kPa | 1212.53 | –
283.15 K, 2000 kPa | 1213.37 | –
283.15 K, 4000 kPa | 1214.24 | –
283.15 K, 6000 kPa | 1215.13 | –
283.15 K, 8000 kPa | 1216 | –
283.15 K, 10000 kPa | 1216.89 | –
283.15 K, 12000 kPa | 1217.77 | –
283.15 K, 14000 kPa | 1218.63 | –
283.15 K, 20000 kPa | 1221.2 | –
283.15 K, 30000 kPa | 1225.42 | –
283.15 K, 40000 kPa | 1229.49 | –
283.15 K, 50000 kPa | 1233.46 | –
283.15 K, 60000 kPa | 1237.32 | –
285.05 K, 110 kPa | – | 197.8
285.05 K, 14190 kPa | – | 236.6
285.15 K, 110 kPa | – | 197.5
285.15 K, 660 kPa | – | 197.8
285.15 K, 1660 kPa | – | 200.2
285.15 K, 2660 kPa | – | 202.7
285.15 K, 4070 kPa | – | 206.4
285.15 K, 6100 kPa | – | 211
285.15 K, 8180 kPa | – | 215.4
285.15 K, 10150 kPa | – | 220.7
285.15 K, 12050 kPa | – | 226.1
288.15 K, 100 kPa | 1208.87 | –
288.15 K, 2000 kPa | 1209.73 | –
288.15 K, 4000 kPa | 1210.65 | –
288.15 K, 6000 kPa | 1211.56 | –
288.15 K, 8000 kPa | 1212.45 | –
288.15 K, 10000 kPa | 1213.34 | –
288.15 K, 12000 kPa | 1214.22 | –
288.15 K, 14000 kPa | 1215.09 | –
288.15 K, 20000 kPa | 1217.71 | –
288.15 K, 30000 kPa | 1221.96 | –
288.15 K, 40000 kPa | 1226.06 | –
288.15 K, 50000 kPa | 1230.05 | –
288.15 K, 60000 kPa | 1233.94 | –
293.15 K, 100 kPa | 1205.25 | –
293.15 K, 2000 kPa | 1206.11 | –
293.15 K, 4000 kPa | 1207.04 | –
293.15 K, 6000 kPa | 1207.96 | –
293.15 K, 8000 kPa | 1208.85 | –
293.15 K, 10000 kPa | 1209.74 | –
293.15 K, 12000 kPa | 1210.69 | –
293.15 K, 14000 kPa | 1211.59 | –
293.15 K, 20000 kPa | 1214.19 | –
293.15 K, 30000 kPa | 1218.46 | –
293.15 K, 40000 kPa | 1222.59 | –
293.15 K, 50000 kPa | 1226.61 | –
293.15 K, 60000 kPa | 1230.53 | –
293.85 K, 120 kPa | – | 125.5
293.85 K, 710 kPa | – | 126.4
293.85 K, 1690 kPa | – | 127.1
293.85 K, 2640 kPa | – | 128.5
293.85 K, 4150 kPa | – | 130.9
293.85 K, 6130 kPa | – | 132.7
293.85 K, 8200 kPa | – | 134.9
293.85 K, 10200 kPa | – | 137.4
293.85 K, 12000 kPa | – | 142.1
293.85 K, 12230 kPa | – | 143.2
293.85 K, 14330 kPa | – | 146.1
293.85 K, 14700 kPa | – | 146
298.15 K, 100 kPa | 1201.64 | –
298.15 K, 2000 kPa | 1202.53 | –
298.15 K, 4000 kPa | 1203.45 | –
298.15 K, 6000 kPa | 1204.39 | –
298.15 K, 8000 kPa | 1205.3 | –
298.15 K, 10000 kPa | 1206.22 | –
298.15 K, 12000 kPa | 1207.12 | –
298.15 K, 14000 kPa | 1208 | –
298.15 K, 20000 kPa | 1210.64 | –
298.15 K, 30000 kPa | 1214.97 | –
298.15 K, 40000 kPa | 1219.15 | –
298.15 K, 50000 kPa | 1223.24 | –
298.15 K, 60000 kPa | 1227.21 | –
303.15 K, 100 kPa | 1198.09 | –
303.15 K, 120 kPa | – | 78.1
303.15 K, 770 kPa | – | 80
303.15 K, 1680 kPa | – | 82.4
303.15 K, 2000 kPa | 1198.98 | –
303.15 K, 2700 kPa | – | 83.3
303.15 K, 4000 kPa | 1199.92 | –
303.15 K, 4170 kPa | – | 84.4
303.15 K, 6000 kPa | 1200.85 | –
303.15 K, 6240 kPa | – | 85.1
303.15 K, 6290 kPa | – | 85
303.15 K, 8000 kPa | 1201.78 | –
303.15 K, 8180 kPa | – | 88.3
303.15 K, 10000 kPa | 1202.7 | –
303.15 K, 10200 kPa | – | 89.8
303.15 K, 12000 kPa | 1203.62 | –
303.15 K, 12110 kPa | – | 91
303.15 K, 14000 kPa | 1204.52 | –
303.15 K, 14200 kPa | – | 92.5
303.15 K, 14290 kPa | – | 91.7
303.15 K, 20000 kPa | 1207.18 | –
303.15 K, 30000 kPa | 1211.54 | –
303.15 K, 40000 kPa | 1215.79 | –
303.15 K, 50000 kPa | 1219.9 | –
303.15 K, 60000 kPa | 1223.89 | –
308.15 K, 100 kPa | 1194.52 | –
308.15 K, 2000 kPa | 1195.44 | –
308.15 K, 4000 kPa | 1196.38 | –
308.15 K, 6000 kPa | 1197.34 | –
308.15 K, 8000 kPa | 1198.26 | –
308.15 K, 10000 kPa | 1199.2 | –
308.15 K, 12000 kPa | 1200.1 | –
308.15 K, 14000 kPa | 1201.03 | –
308.15 K, 20000 kPa | 1203.74 | –
308.15 K, 30000 kPa | 1208.15 | –
308.15 K, 40000 kPa | 1212.4 | –
308.15 K, 50000 kPa | 1216.54 | –
308.15 K, 60000 kPa | 1220.57 | –
313.15 K, 100 kPa | 1191.01 | –
313.15 K, 2000 kPa | 1191.92 | –
313.15 K, 4000 kPa | 1192.9 | –
313.15 K, 6000 kPa | 1193.86 | –
313.15 K, 8000 kPa | 1194.8 | –
313.15 K, 10000 kPa | 1195.75 | –
313.15 K, 12000 kPa | 1196.67 | –
313.15 K, 14000 kPa | 1197.1 | –
313.15 K, 20000 kPa | 1200.34 | –
313.15 K, 30000 kPa | 1204.81 | –
313.15 K, 40000 kPa | 1209.11 | –
313.15 K, 50000 kPa | 1213.28 | –
313.15 K, 60000 kPa | 1217.34 | –
313.45 K, 14310 kPa | – | 59.4
313.55 K, 120 kPa | – | 51.2
313.55 K, 710 kPa | – | 51.7
313.55 K, 1650 kPa | – | 52.3
313.55 K, 2690 kPa | – | 52.5
313.55 K, 4250 kPa | – | 53.4
313.55 K, 6260 kPa | – | 54.3
313.55 K, 8200 kPa | – | 54.9
313.55 K, 10200 kPa | – | 56.2
318.15 K, 100 kPa | 1187.48 | –
318.15 K, 2000 kPa | 1188.43 | –
318.15 K, 4000 kPa | 1189.42 | –
318.15 K, 6000 kPa | 1190.39 | –
318.15 K, 8000 kPa | 1191.39 | –
318.15 K, 10000 kPa | 1192.31 | –
318.15 K, 12000 kPa | 1193.27 | –
318.15 K, 14000 kPa | 1194.22 | –
318.15 K, 20000 kPa | 1196.98 | –
318.15 K, 30000 kPa | 1201.46 | –
318.15 K, 40000 kPa | 1205.83 | –
318.15 K, 50000 kPa | 1210.05 | –
318.15 K, 60000 kPa | 1214.15 | –
323.15 K, 100 kPa | 1184 | –
323.15 K, 2000 kPa | 1184.97 | –
323.15 K, 4000 kPa | 1185.97 | –
323.15 K, 6000 kPa | 1186.94 | –
323.15 K, 8000 kPa | 1187.91 | –
323.15 K, 10000 kPa | 1188.88 | –
323.15 K, 12000 kPa | 1189.84 | –
323.15 K, 14000 kPa | 1190.78 | –
323.15 K, 20000 kPa | 1193.6 | –
323.15 K, 30000 kPa | 1198.15 | –
323.15 K, 40000 kPa | 1202.55 | –
323.15 K, 50000 kPa | 1206.8 | –
323.15 K, 60000 kPa | 1210.94 | –
324.8 K, 630 kPa | – | 34.5
324.82 K, 120 kPa | – | 34.3
324.85 K, 1700 kPa | – | 34.8
324.85 K, 2590 kPa | – | 35.2
324.85 K, 4050 kPa | – | 35.3
324.85 K, 4260 kPa | – | 35.8
324.85 K, 6160 kPa | – | 36.5
324.85 K, 8160 kPa | – | 36.7
324.85 K, 10450 kPa | – | 37.5
324.85 K, 12130 kPa | – | 38.4
324.85 K, 14150 kPa | – | 39
